Source: US5877210A, “Phosphotyrosine phosphatase inhibitors or phosphotyrosine kinase activators for controlling cellular proliferation” (priority 1995, dated 1999)
Where “and” joins values, the source holds several entries; their conditions need not be identical. Equal values may be shown once.

Key:
[1] = test system: MDAMB-453 breast carcinoma cells; test: Clonogenic assay in methylcellulose; format: cell-based; conditions: dose as high as 100 μM BMLOV
Protocol: The selective cytotoxicity of BMLOV was examined in clonogenic assays. Cells were grown in methylcellulose media and the number of colonies formed after seven days of treatment with various doses of the drug were determined. The clonogenic assays were performed with six replicates for each treatment as described [F. M. Uckun et al., J. Exp. Med. 163:347-368 (1986); F. M. Uckun & J. A. Ledbetter, Proc. Natl. Acad. Sci. USA 85:8603-8607 (1988)). The data is given plus/minus the standard error of the mean.

normal tonsillar B cells = test: Normal tonsillar B cell proliferation; format: cell-based
Text: BMLOV can inhibit normal tonsillar B cell proliferation driven by stimulation of CD40 via either anti-CD40 antibody or gp39 ligand plus either anti-CD20 antibody or phorbol 12-myristate 13-acetate (PMA). […] Variations between the individuals from which the tonsils were derived could account for the differences between these experiments.

[2] = test system: mixed lymphocyte response cultures dependent on CD28 costimulation; test: Mixed lymphocyte response cultures; format: cell-based; conditions: 0.5 to 5 μM BMLOV
Protocol: Mixed lymphocyte response cultures that are dependent on CD28 costimulation were inhibited by over 50% by 0.5 to 5 μM BMLOV (FIG. 8).

pp60^c-src = test: pp60c-src kinase activity in colon carcinoma cell lines; format: cell-based; conditions: two colon carcinoma cell lines expressing Src; dose-dependent
Text: Many colon carcinomas are known to express the Src oncogene product at high levels.

PLCγ2 = PLCγ2 tyrosine phosphorylation in Ramos B cells; format: cell-based, human; conditions: 16 h, dose-dependent, no antigen receptor stimulation
Protocol: Syk is essential for the tyrosine phosphorylation of PLCγ2 that leads to Ca^2+ signaling in B cells following antigen receptor stimulation (M. Takata et al., EMBO J. 13:1341-1349 (1994)). […] In the experiments shown in FIG. 24, Ramos B cells were treated 16 h with the indicated concentrations of BMLOV and then stimulated for 2 min with α-μ. Antibody binding in immunoblots was detected by ECL. […] The extent of tyrosine phosphorylation of PLCγ2 induced by BMLOV was substantially more than that observed following a maximal sIgM stimulation, and no additional tyrosine phosphorylation of PLCγ2 could be induced by sIgM stimulation of BMLOV treated cells.

Jurkat T cells = test: TUNEL analysis of fragmented DNA by flow cytometry; format: cell-based, human; conditions: 25 or 50 μM BMLOV, 48 h
Protocol: (§1) TUNEL (TdT-mediated dUTP-biotin nick end labeling) staining for the in situ detection of fragmented DNA was as previously described (Y. Gavrieli et al., J. Cell Biol. 119:493-501 (1992)) with modification to permit detection by flow cytometry. Cells (2×106) were washed with PBS and resuspended in 4% formaldehyde in PBS at 4° C. for 4 h for fixation. Cells were rinsed in PBS and permeabilized by resuspension in 70% ethanol in PBS for 1 h at 4° C. Cells were rinsed with PBS, rinsed with TdT buffer (30 mM Tris-HCl, pH 7.2, 140 mM cacodylate, 1 mM cobalt chloride) and resuspended in 150 μl TdT buffer. Biotin-dUTP (SIGMA, St. Louis, Mo.) was added to 15 μM and terminal deoxynucleotidyl transferase (TdT, Boehringer Mannheim) was added to 0.6 U/μl. DNA synthesis was for 1 h at 37° C. and was stopped by the addition of 1 ml cold PBS. Cells were rinsed twice with PBS and resuspended in 500 μl of PBS containing 5 μg of fluorescein-avidin at 4° C. for 16 h. Cells were washed twice in PBS and resuspended in 400 μl of PBS for flow cytometry. Cells were analyzed using a Becton-Dickinson FACScan flow cytometer and LYSIS analysis software.
(§2) The extent of DNA fragmentation and the cell type selective activity was quantitated by TUNEL analysis (Y. Gavrieli et al., (1992), supra); FIG. 28). […]

Ramos B cells = test: TUNEL analysis of fragmented DNA by flow cytometry; format: cell-based, human; conditions: 25 or 50 μM BMLOV, 48 h
Protocol: as §1, §2

[3] = test system: i.p. implanted P388 murine leukemia; test: In vivo antitumor test, P388

## Cc1occc(=O)c1[O-].Cc1occc(=O)c1[O-].[O]=[V+2] [BMLOV, Bis(maltolato)oxovanadium (IV)]
[1]
  inhibition of clonogenic growth: inhibited only moderately
Normal tonsillar B cells; first experiment (FIG. 3), 0.1 to 10 μM BMLOV
  effect on proliferation: little effect on proliferation
Normal tonsillar B cells; second experiment (FIG. 4), 5 μM BMLOV
  effect on proliferation: substantial inhibition of proliferation
Normal tonsillar B cells; second experiment (FIG. 4), 50 μM BMLOV
  effect on proliferation: completely blocked proliferation
[2]
  inhibition of mixed lymphocyte response: over 50%
pp60^c-src
  pp60c-src activity: strongly inhibited
PLCγ2
  tyrosine phosphorylation of PLCγ2: strongly induced the tyrosine phosphorylation of PLCγ2
Jurkat T cells
  DNA fragmentation by TUNEL: little labeling was observed
Ramos B cells
  DNA fragmentation by TUNEL: extensively induced in a dose dependent manner

## [Na+].[O]=[V-]12([O][O]1)[O][O]2.c1cnc2c(c1)ccc1cccnc12 [pV(phen), sodium (1,10-phenanthroline) oxodiperoxovanadium (V)]
[3]; Expt. 8457, 8 mg/kg/inj (MTD reached), d.1, ip, 8 mg/kg
  Max. % T/C: < 125% and 105%
[3]; daily i.p. injections days 1 to 5, Expt. 8459
  dose considered to be a MTD: 12 mg/kg per injection
[3]; single i.p. doses, Expt. 8457
  excessively toxic, i.e. lethal, dose: greater than or equal to 32 mg/kg
